Measurements reported in PubChem BioAssay (NCI).
Several values for one entry are separate records, joined by “and”; a condition that tells them apart may be missing. Equal entries are not always repeated.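 How tested: cells in 96-well plates exposed to compound for 48 hours at five concentrations. At the GI50, growth is halved. TGI denotes the concentration required for complete inhibition of growth.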

Legend:
Test in all cases: NCI anticancer screen, dose series, 48 h
COLO 205 colon = tested on: COLO 205 colon
HL-60(TB) leukemia = tested on: HL-60(TB) leukemia
HT29 colon = tested on: HT29 colon
MALME-3M melanoma = tested on: MALME-3M melanoma
NCI-H226 lung = tested on: NCI-H226 lung
NCI-H23 lung = tested on: NCI-H23 lung
OVCAR-3 ovarian = tested on: OVCAR-3 ovarian
OVCAR-5 ovarian = tested on: OVCAR-5 ovarian
RXF 393 renal = tested on: RXF 393 renal
SF-295 CNS = tested on: SF-295 CNS
SK-MEL-2 melanoma = tested on: SK-MEL-2 melanoma
SNB-75 CNS = tested on: SNB-75 CNS
TK-10 renal = tested on: TK-10 renal
A498 renal = tested on: A498 renal
HS 578T breast = tested on: HS 578T breast
T-47D breast = tested on: T-47D breast

| SMILES | TGI (COLO 205 colon) | TGI (HL-60(TB) leukemia) | TGI (HT29 colon) | TGI (MALME-3M melanoma) | TGI (NCI-H226 lung) | TGI (NCI-H23 lung) | TGI (OVCAR-3 ovarian) | TGI (OVCAR-5 ovarian) | TGI (RXF 393 renal) | TGI (SF-295 CNS) | TGI (SK-MEL-2 melanoma) | TGI (SNB-75 CNS) | TGI (TK-10 renal) | TGI (A498 renal) | TGI (HS 578T breast) | GI50 (HT29 colon) | GI50 (NCI-H226 lung) | GI50 (SF-295 CNS) | TGI (T-47D breast) |
| --- | --- | --- | --- | --- | --- | --- | --- | --- | --- | --- | --- | --- | --- | --- | --- | --- | --- | --- | --- |
| CCOc1ccc(N(CC(=O)N2CC(=O)Nc3cc(C)c(C)cc32)C(C)=O)cc1 | > 100 µM | > 100 µM | > 100 µM | > 100 µM | > 100 µM | > 100 µM | > 100 µM | > 100 µM | > 100 µM | > 100 µM | > 100 µM | > 100 µM | > 100 µM | – | – | – | – | – | – |
| N=S(c1ccccc1[N+](=O)[O-])c1ccccc1[N+](=O)[O-] | 2.77 µM and 4.12 µM | 2.57 µM and 3.39 µM | 5.16 µM and 8.69 µM | 6.1 µM and 7.33 µM | 12.3 µM and 30.1 µM | 6.77 µM and 11 µM | 1.63 µM and 3.05 µM | 7.69 µM and 11.8 µM | 5.6 µM and 14.4 µM | 6.16 µM and 15.4 µM | 7.97 µM and 9.86 µM | 20.5 µM and 15.6 µM | 7.42 µM and 6.53 µM | 43.5 µM and 32.2 µM | > 100 µM | 1.54 µM and 3.83 µM | 12.6 µM | 2.45 µM and 5.99 µM | 0.934 µM |
| COc1cc(/C=C2\CCC(C)C3=C2N=c2s/c(=C/c4ccc(Cl)cc4)c(=O)n2C3c2cc(OC)c(OC)c(OC)c2)cc(OC)c1OC (stereo not drawn) | – | > 100 µM | > 100 µM | – | – | – | – | > 100 µM | > 100 µM | – | > 100 µM | > 100 µM | > 100 µM | > 100 µM | > 100 µM | – | – | – | – |
| COc1ccc(OC2(c3cc(OC)ccc3OC)OC(=O)c3ccccc32)cc1 (stereo not drawn) | > 100 µM | > 100 µM | > 100 µM | > 100 µM | > 100 µM | > 100 µM | > 100 µM | > 100 µM | > 100 µM | > 100 µM | > 100 µM | > 100 µM | > 100 µM | > 100 µM | – | – | – | – | – |
| COc1cccc(C2=NC(C(C)C)CO2)c1OC (stereo not drawn) | > 100 µM | > 100 µM | > 100 µM | > 100 µM | > 100 µM | > 100 µM | > 100 µM | > 100 µM | > 100 µM | > 100 µM | > 100 µM | > 100 µM | > 100 µM | > 100 µM | – | – | – | – | – |
| N#C/C(c1nc2ccccc2[nH]1)=c1\s/c(=C/c2ccccc2)c(=O)n1-c1ccccc1 | > 100 µM | > 100 µM | – | > 100 µM | > 100 µM | > 100 µM | > 100 µM | > 100 µM | – | – | > 100 µM | > 100 µM | > 100 µM | > 100 µM | – | – | – | – | – |
| CC1(O)CC2C(CC1SC1CC3C(CC1(C)O)C3(C)C)C2(C)C (stereo not drawn) | > 100 µM | 58.5 µM | > 100 µM | > 100 µM | > 100 µM | > 100 µM | > 100 µM | > 100 µM | – | > 100 µM | > 100 µM | 80.1 µM | > 100 µM | – | – | – | – | – | – |
| COc1cc2c(c(OC)c1OC)-c1ccc(SC)c(=O)cc1[C@@H](NC(=O)c1cccc([N+](=O)[O-])c1)CC2 | 0.0343 µM | – | 0.0708 µM | – | – | – | 0.0404 µM | > 100 µM | – | – | – | – | 55.3 µM | 0.0479 µM | – | – | – | – | – |
